One assay deals with rat pulmonary artery. Briefly: Rat pulmonary artery ring relaxation (endogenous tetrahydrobiopterin present). Conditions: rat pulmonary artery, normal or DAHP-treated. Here is the method:
Rings (5 mm long) of rat pulmonary artery and aorta, were supported on a pair of intraluminal wires at 1 gm tension for one hour and then contracted with their EC50 phenylephrine concentration, which for pulmonary artery was 3.6×10^−8 M (derived from preliminary experiments) and for aorta was 11.8×10^−8 M (from the previously published literature). The rings were then relaxed with carbachol (10 μM). If the relaxation to carbachol was >75%, then the tissues were used to generate dose responses by addition of tetrahydrobiopterin (BH4) or the analogues. Stock BH4 was stored at −20° C. and the dilutions were prepared using saline just before adding the drug into the bath. Solutions of analogues were stored at 4° C. Cumulatively increasing concentrations of the analogues were added to the bath and the extent of relaxation was measured when it had stabilised. Another ring from the same rat was treated in parallel with the solvent for the analogue. The solvent used was NH4OH. The results are shown graphically in FIGS. 1 and 2.
Take `C[C@H](O)[C@H](O)[C@H]1CNc2nc(N)[nH]c(=O)c2N1` [tetrahydrobiopterin, reference compound]: the “concentrations of tetrahydrobiopterin causing contraction” value is “above 3 μM”.

The next assay deals with T1, iNOS (Mus musculus, UniProt P29477).
T1 construct: stimulated macrophages that produce iNOS; endogenous in cells; host or cells: primary mouse macrophages (from femur), LPS-stimulated, DAHP-treated
T1 sequence (P29477 whole entry): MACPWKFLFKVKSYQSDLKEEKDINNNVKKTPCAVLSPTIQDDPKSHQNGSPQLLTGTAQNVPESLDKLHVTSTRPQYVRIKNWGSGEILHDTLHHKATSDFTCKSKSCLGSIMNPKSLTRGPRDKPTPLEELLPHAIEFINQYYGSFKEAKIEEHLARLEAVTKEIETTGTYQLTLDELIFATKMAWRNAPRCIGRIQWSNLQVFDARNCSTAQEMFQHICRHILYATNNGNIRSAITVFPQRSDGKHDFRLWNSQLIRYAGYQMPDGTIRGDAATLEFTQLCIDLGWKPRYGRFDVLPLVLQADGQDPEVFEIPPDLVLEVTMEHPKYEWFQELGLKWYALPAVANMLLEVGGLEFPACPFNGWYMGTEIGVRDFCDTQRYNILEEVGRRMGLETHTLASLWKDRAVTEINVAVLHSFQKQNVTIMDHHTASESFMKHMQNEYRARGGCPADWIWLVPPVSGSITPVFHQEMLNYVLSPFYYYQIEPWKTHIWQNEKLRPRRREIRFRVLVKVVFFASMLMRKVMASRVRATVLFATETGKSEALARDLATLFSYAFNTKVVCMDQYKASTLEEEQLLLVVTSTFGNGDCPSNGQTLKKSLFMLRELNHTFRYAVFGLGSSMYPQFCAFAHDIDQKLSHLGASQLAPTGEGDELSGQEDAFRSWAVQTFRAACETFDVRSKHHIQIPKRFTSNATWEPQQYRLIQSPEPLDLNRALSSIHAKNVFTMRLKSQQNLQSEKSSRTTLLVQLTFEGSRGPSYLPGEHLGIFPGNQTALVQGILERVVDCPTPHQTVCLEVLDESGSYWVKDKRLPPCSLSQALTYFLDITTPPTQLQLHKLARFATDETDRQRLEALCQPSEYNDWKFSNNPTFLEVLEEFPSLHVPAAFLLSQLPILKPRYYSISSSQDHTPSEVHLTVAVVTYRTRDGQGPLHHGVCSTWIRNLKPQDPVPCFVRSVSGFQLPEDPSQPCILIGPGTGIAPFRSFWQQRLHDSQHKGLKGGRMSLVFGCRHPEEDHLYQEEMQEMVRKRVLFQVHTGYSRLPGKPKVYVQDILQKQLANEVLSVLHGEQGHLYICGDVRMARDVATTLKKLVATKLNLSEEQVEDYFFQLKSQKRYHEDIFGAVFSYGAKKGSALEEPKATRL
Briefly: Macrophage assay (iNOS), macrophages depleted of tetrahydrobiopterin by DAHP. Conditions: 72 h; tested at 1 microM in macrophages; P = promotes NOS activity; read-out: iNOS effect *H155. It counts as cell-based.
Method: This is a cell based assay with lipopolysaccharide stimulated macrophages in which nitric oxide is produced by the action of iNOS. Primary cultures of macrophage cells isolated from mouse femur were produced over a 7 day period. At this stage the cells were seeded into 96-well culture plates at a density of 2×10^5 cells per well. After further incubation for 24 hrs, the well media was changed and the relevant treatment was introduced. The cells were then incubated for a further 72 hrs before 50 μl was removed from each well and combined with 100 μl of Greiss reagent for NO2 determination. All treatments were performed in triplicate. In each plate, 3 wells were designated control i.e. media change only-no LPS. These samples represent basal NO2 output over 72 hrs. 3 wells were used for LPS (0.5 μg/ml) stimulation alone and 3 wells were used for LPS+0.05% DMSO. This DMSO concentration was present in all subsequent analogue treated wells. All analogues were tested at 1.0 and 10 μM. In another set of experiments, the assay was repeated with the inclusion of a step to deplete endogenous tetrahydrobiopterin as in the artery ring studies. DAHP pre-treatment was employed to deplete the macrophage cells of endogenous tetrahydrobiopterin. In these experiments, DAHP (10^−2 M) was added to the cells for 24 hrs prior to seeding into 96-well plates and for 24 hrs following the seeding procedure. Thereafter, DAHP was present throughout the analogue treatment period of 72 hrs. […] Macrophages were initially depleted of tetrahydrobiopterin by incubation with DAHP.
As to `Nc1nc2ncc(C=O)nc2c(=O)[nH]1` [wsg1003, 2-Amino-4-oxo-3,4-dihydro-pteridine-6-carbaldehyde], the activation at 1 µM was 20 to 50%.

Turning to `CC1(C)Nc2nc(N)[nH]c(=O)c2N=C1CO` [wsg1004, 2-Amino-6-hydroxymethyl-7,7-dimethyl-7,8-dihydro-3H-pteridin-4-one], the activation at 1 µM lay in the range of 20 to 50%.

On to `Nc1nc2ncc(C(=O)O)nc2c(=O)[nH]1` [wsg1005, 2-Amino-4-oxo-3,4-dihydro-pteridine-6-carboxylic acid], for which the activation at 1 µM was in the range of 20 to 50%.

In the case of `CCC1=Nc2c(nc(N)[nH]c2=O)NC1(C)C` [wsg1006, 2-Amino-6-ethyl-7,7-dimethyl-7,8-dihydro-3H-pteridin-4-one], the activation at 1 µM is 20 to 50%.

On to `CC12CCCCC1=Nc1c(nc(N)[nH]c1=O)N2` (stereo not shown) [wsg1007, 2-Amino-9a-methyl-6,7,8,9,9a,10-hexahydro-3H-benzo[g]pteridin-4-one], for which the activation at 1 µM lay in the range of 20 to 50%.

`CC12CCCC1(S(=O)(=O)O)Nc1c(nc(N)[nH]c1=O)N2` (stereo not shown) [wsg1008, 6-Amino-3a-methyl-8-oxo-1,2,3,3a,4,7,8,9-octahydro-4,5,7,9-tetraaza-cyclopenta[b]naphthalene-9a-sulfonic acid]: the activation at 1 µM was in the range of 20 to 50%.

`Cc1nc2nc(N)[nH]c(=O)c2nc1C` [wsg1009, 2-Amino-6,7-dimethyl-3H-pteridin-4-one]: the activation at 1 µM was 20 to 50%.

`CC1Nc2nc(N)[nH]c(=O)c2NC1C` (stereo not shown) [wsg1010, 2-Amino-6,7-dimethyl-4-oxo-3,4,5,6,7,8-hexahydro-pteridin-5-ium Cl-]: the activation at 1 µM lay in the range of 20 to 50%.

As for `CC1=Nc2c(nc(N)[nH]c2=O)NC1C` (stereo not shown) [wsg1011, 2-Amino-6,7-dimethyl-4-oxo-3,4,7,8-tetrahydro-pteridin-8-ium Cl-], the activation at 1 µM is 20 to 50%.

Turning to `CC1(C)Nc2nc(N)[nH]c(=O)c2N=C1Cc1ccccc1` [wsg1012, 2-Amino-6-benzyl-7,7-dimethyl-7,8-dihydro-3H-pteridin-4-one], the activation at 1 µM was in the range of 20 to 50%.

For the compound `CCC1(CC)Nc2nc(N)[nH]c(=O)c2N=C1CO` [wsg1014, 2-Amino-7,7-diethyl-6-hydroxymethyl-7,8-dihydro-3H-pteridin-4-one], the activation at 1 µM is under 20%.

As for `CC1(CCc2ccccc2)Nc2nc(N)[nH]c(=O)c2N=C1C=O` (stereo not shown) [wsg1016, 2-Amino-7-methyl-4-oxo-7-phenethyl-3,4,7,8-tetrahydro-pteridine-6-carbaldehyde], the activation at 1 µM is under 20%.

For the compound `CC1(C)Nc2nc(N)[nH]c(=O)c2N=C1/C=C/c1ccc(Cl)cc1` [wsg1017, 2-Amino-6-[2-(4-chloro-phenyl)-vinyl]-7,7-dimethyl-7,8-dihydro-3H-pteridin-4-one], the activation at 1 µM was over 50%.

As to `CC1(CCc2ccccc2)Nc2nc(N)[nH]c(=O)c2N=C1CO` (stereo not shown) [wsg1018, 2-Amino-6-hydroxymethyl-7-methyl-7-phenethyl-7,8-dihydro-3H-pteridin-4-one], the activation at 1 µM was in the range of 20 to 50%.

With `CC1=Nc2c(nc(N)[nH]c2=O)OC1(C)C` [wsg1019, 2-Amino-6,7,7-trimethyl-3,7-dihydro-pyrimido[4,5-b][1,4]oxazin-4-one], the activation at 1 µM was under 20%.

The values are drawn from patent publication US20060194800A1, “Pteridine derivatives as nitric oxide synthase activators” (University of Strathclyde, priority 2005, published 2006).
